In assay [1] the target is T1, human recombinant COX-2 (Homo sapiens, UniProt P35354).
T1 construct: purchased
T1 sequence (P35354 18-604): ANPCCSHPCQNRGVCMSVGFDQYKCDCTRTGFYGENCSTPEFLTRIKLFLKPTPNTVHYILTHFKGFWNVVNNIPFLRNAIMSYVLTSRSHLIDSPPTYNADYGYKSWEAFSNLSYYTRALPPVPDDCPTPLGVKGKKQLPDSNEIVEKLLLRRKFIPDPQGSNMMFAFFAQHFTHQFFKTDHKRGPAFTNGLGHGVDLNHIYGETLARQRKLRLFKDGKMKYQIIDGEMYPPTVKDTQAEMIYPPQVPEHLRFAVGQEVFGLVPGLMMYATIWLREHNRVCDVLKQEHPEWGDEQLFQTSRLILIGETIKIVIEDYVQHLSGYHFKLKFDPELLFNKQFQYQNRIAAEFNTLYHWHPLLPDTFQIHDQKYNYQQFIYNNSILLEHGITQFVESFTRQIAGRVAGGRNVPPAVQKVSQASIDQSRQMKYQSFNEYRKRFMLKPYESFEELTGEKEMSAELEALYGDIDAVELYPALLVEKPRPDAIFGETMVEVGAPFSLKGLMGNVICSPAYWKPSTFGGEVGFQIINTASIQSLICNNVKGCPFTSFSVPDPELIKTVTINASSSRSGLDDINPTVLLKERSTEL
The experiment in a line: COX-2 inhibitory activity, colourimetric COX inhibitor screening assay kit. In kind it is biochemical. Here is the method:
The inhibitory COX activity was assayed colourimetrically by examining the inhibition of the ovine COX-1 and human recombinant COX-2 enzymes as described by George et al.[38], using a COX inhibitor screening assay kit. The detailed procedures were described in the supplementary file.
The inhibitory COX activity was assayed colourimetrically by examining the inhibition of the ovine COX-1 and human recombinant COX-2 enzymes as described by George et al. ^2, using a COX inhibitory screening assay kit. This assay determines the COX peroxidase activity by monitoring the appearance of N,N,N',N'-tetramethyl-p-phenylenediamine (TMPD). Assay buffer (150 μL 0.1 M Tris–HCl pH 8.0), 10 μL heme and 10μL enzyme (COX-1 or COX-2) were added in each well. Ten μL of each tested sample concentration was added to each well and incubated for 15 minutes at 37°C. After incubation, 20 μL of TMPD was added to each well. For initiating the reaction, 10 μL 10 mM arachidonic acid was added and the plates were further incubated for another 2 minutes at 37°C. For terminating the reaction, 50 μL 1 N HCl and saturated stannous chloride were added.
Reaction mixture containing assay buffer and heme acted as the blank and a mixture with either COX-1 or COX-2 assay buffer and heme acted as the 100% initial activity (IA). […] The absorbances of oxidized TMPD (blue colour) were read in ELISA plate reader at 590 nm. The % inhibition was calculated using the following formula:
COX % Inhibition= [(100%IA−Inhibitor)/ 100% IA x 100]. Where, IA: 100% initial activity.
The concentration at which the tested sample produces 50% inhibition of COX-1 and/or COX-2 (IC50) was determined. The selectivity index (SI) was calculated also as IC50 (COX-1)/ (COX-2).

Assay [2] has as its target T2, Human inosine-5′-monophosphate dehydrogenase (hIMPDH2) (Homo sapiens, UniProt P12268).
T2 construct: purchased NovoCIB SAS (Lyon, France)
Nature of the assay: In vitro hIMPDH2 inhibition assay (NADH absorbance at 340 nm). The assay is classed as biochemical. More on the design: key to hIMPDH2 inhibitory activity: % hIMPDH2 inhibition. The conditions noted are these: for hIMPDH2 inhibitory activity: in % (unit assumed). Here is the method: Human inosine-5′-monophosphate dehydrogenase (hIMPDH2) was purchased from NovoCIB SAS (Lyon, France). […] The detailed procedures were described in the supplementary file.
Thus, irigenin was selected to test its HpIMPDH inhibitory activity by monitoring NADH production at concentration range of 10–0.078 µM compared to clarithromycin as standard drug. Also, to examine irigenin selectivity toward the bacterial IMPDH, human hIMPDH2 inhibition potential was assayed.
Human inosine-5′-monophosphate dehydrogenase (hIMPDH2) was purchased from NovoCIB SAS (Lyon, France). […] The assay was carried out in 96-well plates (Tarsons, 980040). The reaction buffer consisted of hundred mM KCl, hundred mM Tris–HCl (pH 8.6), and five mM DTT, 4% v/v DMSO with or without the tested compound and 0.15 mU of purified hIMPDH2 enzyme per well (from 1.5 mg/mL stock concentration). The enzyme stock solution final volume was 2 μL per well, which was insignificant to cause final assay buffer composition change. Addition of (substrate buffer) 0.2 mM of IMP and 0.2 mM of NAD^+ initiated the assay, then it was allowed to proceed for 30 min at 37 °C. The formed NADH was measured by reading the absorbance at 340 nm. […] The concentration of the tested sample leading to 50% hIMPDH2 inhibition (IC50) was estimated.

The test system of assay [3] is RAW 264.7 macrophage cell line (NO). Nature of the assay: nitric oxide (NO) inhibitory activity in lipopolysaccharide-stimulated macrophages. The assay is classed as cell-based, murine. The settings on record: Mus musculus, RAW264.7; RAW 264.7 cells, 1 µg/mL lipopolysaccharide. On the procedure: The detailed procedures were described in the supplementary file.
The cell was incubated at 37 °C in 5% carbon dioxide. RAW 264.7 cells were seeded onto a 96-well plate (1×10^5 cells/well) and incubated for 24 h. […] Followed by incubation, the cells stimulated with 1µg/mL of lipopolysaccharide for another 24 h. The supernatant was gently transferred to new 96-well plates and used for NO determination. L-N 6 - (1-iminoethyl) lysine hydrochloride), is used as standard drug. The absorbance (Abs) was measured in a microplate reader at 540 nm ^3. The percentage inhibition was calculated using the following formula:
Inhibition (%) = 1-[Control-Test] Control × 100.

By IC50 is commonly meant the midpoint of a concentration-inhibition curve.

For the compound `COc1cc(-c2coc3cc(O)c(OC)c(O)c3c2=O)cc(O)c1OC` [Irigenin (P3), 3′,5,7-trihydroxy-4′,5′,6 trimethoxyisoflavone], the IC50 was 10.8 ± 0.86 µM in assay [1] (human recombinant COX-2), more than 10 µM in assay [2] and 42.5 ± 1.8 µM in assay [3]. Also, the “SI (COX-1/COX-2)” value in assay [1] (selectivity index calculated as IC50 (COX-1)/(COX-2)) is on record as 3.26. The hIMPDH2 inhibitory activity in assay [2] (sample conc. 0.078 (range 10–0.078 µM)) is listed as 0.00; in assay [2] (sample conc. 0.156 (range 10–0.078 µM)) it was 0.00; in assay [2] (sample conc. 0.313 (range 10–0.078 µM)), 0.00; in assay [2] (sample conc. 0.625 (range 10–0.078 µM)), 0.00; in assay [2] (sample conc. 1.25 (range 10–0.078 µM)), 0.00; in assay [2] (sample conc. 2.5 (range 10–0.078 µM)), 4.81 ± 0.91. Also, the hIMPDH2 inhibitory activity in assay [2] (sample conc. 5 (range 10–0.078 µM)) came out at 10.36 ± 0.72; in assay [2] (sample conc. 10 (range 10–0.078 µM)) it was 22.68 ± 1.00.

Source of the values: publication PMC9259591, “Irigenin, a novel lead from Iris confusa for management of Helicobacter pylori infection with selective COX-2 and HpIMPDH inhibitory potential” (Scientific Reports, 2022).
